Measured values reported in EP1561465A2, “Methods of use of fluoroquinolone compounds against bacteria” (LG Life Sciences, Ltd., priority 1999, dated 2001).
≈ marks a conversion by molar mass, not a printed value. Like-named read-outs stand apart in the source and are kept apart here.

Experiments:
[1] = tested on: Haemophilus influenzae; experiment: MIC by two-fold serial agar dilution, Sensitivity Disk agar-N (Kitasato isolates); type: cell-based; settings: Haemophilus influenzae (24)
[2] = tested on: Moraxella catarrhalis; experiment: as above; type: cell-based; settings: Moraxella catarrhalis (22)
[3] = tested on: Staphylococcus aureus; experiment: microbe, parasite or virus in culture; type: cell-based
[4] = tested on: Streptococcus pneumoniae; experiment: MIC by two-fold serial agar dilution, Sensitivity Disk agar-N (Kitasato isolates); type: cell-based; settings: for MIC90 / MIC / MIC50: Streptococcus pneumoniae; for MIC90: read-out: MIC90; for MIC: read-out: MIC Range; for MIC50: read-out: MIC50
[5] = tested on: Salmonella spp.; experiment: MIC by agar dilution (NCCLS M7-A4), 288 enteropathogenic isolates, gemifloxacin and 15 other antimicrobials; type: cell-based; settings: for MIC: Salmonella
[6] = tested on: Hafnia alvei; experiment: as above; type: cell-based; settings: Hafnia alvei N= 32
[7] = tested on: Yersinia enterocolitica; experiment: as above; type: cell-based; settings: for MIC: Yersinia enterocolitica N= 22
[8] = tested on: Shigella spp.; experiment: as above; type: cell-based; settings: for MIC: Shigella spp. N= 21
Method in brief: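 Agar dilution with ~10^4 cfu/spot inoculum; plates incubated aerobically at 35 °C for 24 h, except C. jejuni, held microaerophilically for 48 h. MIC taken as lowest antibiotic concentration with no visible growth.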

[9] = tested on: Aeromonas spp.; experiment: as above; type: cell-based; settings: for MIC: Aeromonas spp. N= 16
[10] = tested on: Campylobacter jejuni; experiment: as above; settings: Campylobacter jejuni
[11] = 24 h, read-out: MIC (mg/L) Range

For `CC1(C)S[C@@H]2[C@H](NC(=O)[C@H](N)c3ccc(O)cc3)C(=O)N2[C@H]1C(=O)O` [Amoxycillin, amoxycillin], the MIC50 [1] was 1 µg/mL (≈ 2.74 µM), the MIC90 [1] was 64 µg/mL (≈ 175 µM) and the MIC50 [2] was 8 µg/mL (≈ 21.9 µM). For the same molecule, the MIC90 [2] was 16 µg/mL (≈ 43.8 µM), the “MIC Range” value [2] was 1 to 16 µg/mL and the MIC90 [3] was 128 µg/mL (≈ 350 µM). The MIC90 ([3]; Staphylococcus aureus) was 64 µg/mL (≈ 175 µM), the “MIC Range” value ([4]; Ciprofloxacin-susceptible (94)) was ≤0.008 to 8 µg/mL and the “MIC Range” value ([4]; Minocycline-resistant (37)) was ≤0.008 to 8 µg/mL. For the same molecule, the MIC90 ([4]; 18 h, Ciprofloxacin-resistant (21), ciprofloxacin MIC ≥8 µg/ml) was 0.5 µg/mL (≈ 1.37 µM), the MIC ([4]; 18 h, Ciprofloxacin-resistant (21)) was 0.016 to 1 µg/mL (≈ 0.0438 to 2.74 µM) and the MIC ([4]; 18 h, Erythromycin-resistant (37)) was 0.016 to 8 µg/mL (≈ 0.0438 to 21.9 µM). It also gave an MIC ([4]; 18 h, Penicillin-resistant (19)) of 0.25 to 8 µg/mL (≈ 0.684 to 21.9 µM), an MIC50 ([4]; Ciprofloxacin-resistant (21)) of 0.016 µg/mL (≈ 0.0438 µM) and an MIC50 ([4]; Ciprofloxacin-susceptible (94)) of 0.063 µg/mL (≈ 0.172 µM). The MIC90 ([4]; Ciprofloxacin-susceptible (94)) was 0.5 µg/mL (≈ 1.37 µM), the MIC50 ([4]; Erythromycin-resistant (37)) was 0.063 µg/mL (≈ 0.172 µM) and the MIC90 ([4]; Erythromycin-resistant (37)) was 0.5 µg/mL (≈ 1.37 µM). The MIC50 ([4]; Minocycline-resistant (37)) was 0.063 µg/mL (≈ 0.172 µM), the MIC90 ([4]; Minocycline-resistant (37)) was 0.5 µg/mL (≈ 1.37 µM) and the MIC50 ([4]; Penicillin-resistant (19)) was 0.5 µg/mL (≈ 1.37 µM). For the same molecule, the MIC90 ([4]; Penicillin-resistant (19)) was 8 µg/mL (≈ 21.9 µM), the susceptible isolates ([5]; Salmonella spp., breakpoints) was 77% and the MIC ([5]; read-out: MIC (mg/L) 50%, Salmonella spp. N= 106) was 1 mg/L (≈ 2.74 µM). The MIC ([5]; read-out: MIC (mg/L) 90%, Salmonella spp. N= 106) was > 128 mg/L, the MIC [6, 11] was 16 to 128 mg/L (≈ 43.8 to 350 µM) and the MIC ([6]; read-out: MIC (mg/L) 50%) was 64 mg/L (≈ 175 µM). The MIC ([6]; read-out: MIC (mg/L) 90%) was 64 mg/L (≈ 175 µM), the MIC [7, 11] was 128 mg/L (≈ 350 µM) and the “susceptibility of isolates” value ([7]; Yersinia enterocolitica) was “non susceptible”. The MIC ([7]; read-out: MIC (mg/L) 50%) was 128 mg/L (≈ 350 µM), the MIC ([7]; read-out: MIC (mg/L) 90%) was 128 mg/L (≈ 350 µM) and the susceptible isolates ([8]; Shigella spp., breakpoints) was 43%. The MIC ([8]; read-out: MIC (mg/L) 50%) was 128 mg/L (≈ 350 µM), the MIC ([8]; read-out: MIC (mg/L) 90%) was > 128 mg/L and the “susceptibility of isolates” value ([9]; Aeromonas spp.) was “non susceptible”. For the same molecule, the MIC ([9]; read-out: MIC (mg/L) 50%) was > 128 mg/L, the MIC ([9]; read-out: MIC (mg/L) 90%) was > 128 mg/L and the MIC ([10]; read-out: MIC (mg/L) 50%) was 4 mg/L (≈ 10.9 µM). For the same molecule, the MIC ([10]; read-out: MIC (mg/L) 90%) was 32 mg/L (≈ 87.6 µM).
